The text below walks through data of EP0159881A2, “23-C-substituted mycaminosyl tylonolide” (ZAIDAN HOJIN BISEIBUTSU KAGAKU KENKYU KAI, priority 1984, dated 1985).

Common to all, as to assay: minimum inhibitory concentration (MIC), antimicrobial activity
What all share (format): cell-based

Assay [1] relates to Pseud. aeruginosa A3. The source says: (§1) Concerning the antimicrobial activity of the compounds of this invention of the formula (I), minimum effective inhibitory concentrations (MIC) of the compounds are shown in the following Table.
For assay [2], the system named is M. luteus PCI 1001.
Description: as §1

Assay [3] relates to Sal.entiritidis 1891.
Description: as §1

For assay [4], the system named is B. Subtilis NRRL B-558.
Description: as §1

Assay [5] concerns Staph. aureus Smith.
Description: as §1

Assay [6] deals with Kl. pnueroniae PCI-602.
Description: as §1

Where [7] appears, read: Micrococcus luteus, PCI1001, read-out: MIC.
Setting [8] is: Bacillus subtilis, NRRLB558, read-out: MIC.
The mark [9] stands for this setting: Staphylococcus aureus, read-out: MIC.
The mark [10] stands for this setting: Pseudomonas aeruginosa, A3, Pseud. aeruginosa A3, read-out: MIC.

≈ marks a conversion by molar mass, not a printed value. Like-named read-outs stand apart in the source and are kept apart here.

Turning to `C#CC(O)C1C=C(C)C=CC(=O)C(C)CC(CC=O)C(OC2OC(C)C(O)C(N(C)C)C2O)C(C)C(O)CC(=O)OC1CC` (centres unmarked) [11"F, 23-C-ethinylmycaminosyl tylonolide], the minimum inhibitory concentration (MIC) was 6.25 µg/mL (≈ 10.1 µM) in assay [1] (Pseud. aeruginosa A3); less than 0.2 µg/mL in assay [2]; 3.12 µg/mL (≈ 5.02 µM) in assay [3]; 3.12 µg/mL (≈ 5.02 µM) in assay [4]; 1.56 µg/mL (≈ 2.51 µM) in assay [5]; 3.12 µg/mL (≈ 5.02 µM) in assay [6].

Consider `CCC1OC(=O)CC(O)C(C)C(OC2OC(C)CC(N(C)C)C2O)C(CC=O)CC(C)C(=O)/C=C/C(C)=C/C1C(C)O` (single isomer, unassigned) [Example 6, 4'-deoxy-23-C-methymycaminosyl tylonolide], for which the MIC is 12.5 µg/mL (≈ 21 µM) in assay [1] (Pseud. aeruginosa A3); less than 0.2 µg/mL in assay [2]; 3.12 µg/mL (≈ 5.24 µM) in assay [3]; 0.39 µg/mL (≈ 0.655 µM) in assay [4]; 0.39 µg/mL (≈ 0.655 µM) in assay [5]; 3.12 µg/mL (≈ 5.24 µM) in assay [6].

As for `C=CC(O)C1/C=C(C)/C=C/C(=O)C(C)CC(CC=O)C(OC2OC(C)CC(N(C)C)C2O)C(C)C(O)CC(=O)OC1CC` (single isomer, unassigned) [10"F, 4'-deoxy-23-C-vinylmycaminosyl tylonolide], the MIC is less than 0.2 µg/mL in assay [2] (setting [7]); 3.12 µg/mL (≈ 5.13 µM) in assay [3] (read-out: MIC); 0.39 µg/mL (≈ 0.642 µM) in assay [4] (setting [8]); 0.78 µg/mL (≈ 1.28 µM) in assay [5] (setting [9]); 3.12 µg/mL (≈ 5.13 µM) in assay [6] (read-out: MIC).

For `CCC1OC(=O)CC(O)C(C)C(OC2OC(C)CC(N(C)C)C2O)C(CC=O)CC(C)C(=O)/C=C/C(C)=C/C1C(C)O` (single isomer, unassigned) [Example 5(2), 4'-deoxy-23-C-methylmycaminosyl tylonolide], the MIC was 25 µg/mL (≈ 42 µM) in assay [1] (setting [10]); less than 0.2 µg/mL in assay [2] (setting [7]); 3.12 µg/mL (≈ 5.24 µM) in assay [3] (read-out: MIC); 0.39 µg/mL (≈ 0.655 µM) in assay [4] (setting [8]); 0.39 µg/mL (≈ 0.655 µM) in assay [5] (setting [9]); 1.56 µg/mL (≈ 2.62 µM) in assay [6] (read-out: MIC).

On to “23-C-methylmycaminosyl tylonolide diethylacetal [2(2)]”, for which the MIC is 12.5 µg/mL in assay [1] (Pseud. aeruginosa A3); less than 0.2 µg/mL in assay [2]; 3.12 µg/mL in assay [3]; 0.78 µg/mL in assay [4]; 1.56 µg/mL in assay [5]; 3.12 µg/mL in assay [6].

Regarding `C=CCC(O)C1/C=C(C)/C=C/C(=O)C(C)CC(CC=O)C(OC2OC(C)C(O)C(N(C)C)C2O)C(C)C(O)CC(=O)OC1CC` (single isomer, unassigned) [8"F, 23-C-(2-propenyl)mycaminosyl tylonolide], the MIC in assay [1] (setting [10]) is 6.25 µg/mL (≈ 9.8 µM); in assay [2] (setting [7]) it was less than 0.2 µg/mL; in assay [3] (read-out: MIC) it was 3.12 µg/mL (≈ 4.89 µM); in assay [4] (setting [8]), 0.39 µg/mL (≈ 0.611 µM); in assay [5] (setting [9]), less than 0.2 µg/mL; in assay [6] (read-out: MIC), 3.12 µg/mL (≈ 4.89 µM).

For `CC[C@H]1OC(=O)C[C@@H](O)[C@H](C)[C@@H](O[C@@H]2O[C@H](C)[C@@H](O)[C@H](N(C)C)[C@H]2O)[C@@H](CC=O)C[C@@H](C)C(=O)/C=C/C(C)=C/[C@@H]1CO` [MT, mycaminosyl tylonolide], the MIC was 25 µg/mL (≈ 41.8 µM) in assay [1] (Pseud. aeruginosa A3); less than 0.2 µg/mL in assay [2]; 3.12 µg/mL (≈ 5.22 µM) in assay [3]; 3.12 µg/mL (≈ 5.22 µM) in assay [4]; 1.56 µg/mL (≈ 2.61 µM) in assay [5]; 3.12 µg/mL (≈ 5.22 µM) in assay [6].

Take `CC[C@H]1OC(=O)C[C@@H](O)[C@H](C)[C@@H](O[C@@H]2O[C@H](C)C[C@H](N(C)C)[C@H]2O)[C@@H](CC=O)C[C@@H](C)C(=O)/C=C/C(C)=C/[C@@H]1CO` [DT, 4'deoxy mycaminosyl/ tylonolide, reference compound]: the MIC was 12.5 µg/mL (≈ 21.5 µM) in assay [1] (Pseud. aeruginosa A3); less than 0.2 µg/mL in assay [2]; 1.56 µg/mL (≈ 2.68 µM) in assay [3]; 1.56 µg/mL (≈ 2.68 µM) in assay [4]; 0.39 µg/mL (≈ 0.67 µM) in assay [5]; 1.56 µg/mL (≈ 2.68 µM) in assay [6].

Consider `CCC1OC(=O)CC(O)C(C)C(OC2OC(C)C(O)C(N(C)C)C2O)C(CC=O)CC(C)C(=O)/C=C/C(C)=C/C1C(C)O` (single isomer, unassigned) [1(3), 23-C-methylmycaminosyl tylonolide], for which the minimum inhibitory concentration (MIC) in assay [1] (setting [10]) was 12.5 µg/mL (≈ 20.4 µM); in assay [2] (setting [7]), less than 0.2 µg/mL; in assay [3] (read-out: MIC), 3.12 µg/mL (≈ 5.1 µM); in assay [4] (setting [8]), 0.78 µg/mL (≈ 1.27 µM); in assay [5] (setting [9]) it was 1.56 µg/mL (≈ 2.55 µM); in assay [6] (read-out: MIC), 3.12 µg/mL (≈ 5.1 µM).

Regarding `C#CC(O)C1/C=C(C)/C=C/C(=O)C(C)CC(CC=O)C(OC2OC(C)CC(N(C)C)C2O)C(C)C(O)CC(=O)OC1CC` (single isomer, unassigned) [12"F, 4'-deoxy-23-C-ethinylmycaminosyl tylonolide], the MIC in assay [1] (setting [10]) is 3.12 µg/mL (≈ 5.15 µM); in assay [2] (setting [7]), less than 0.2 µg/mL; in assay [3] (read-out: MIC) it was 3.12 µg/mL (≈ 5.15 µM); in assay [4] (setting [8]), 0.78 µg/mL (≈ 1.29 µM); in assay [5] (setting [9]) it was 0.78 µg/mL (≈ 1.29 µM); in assay [6] (read-out: MIC) it was 1.56 µg/mL (≈ 2.58 µM).

Regarding `CCC(O)C1/C=C(C)/C=C/C(=O)C(C)CC(CC=O)C(OC2OC(C)C(O)C(N(C)C)C2O)C(C)C(O)CC(=O)OC1CC` (single isomer, unassigned) [4(2), 23-C-ethylmycaminosyl tylonolide], the MIC is 6.25 µg/mL (≈ 9.99 µM) in assay [1] (setting [10]); less than 0.2 µg/mL in assay [2] (setting [7]); 3.12 µg/mL (≈ 4.99 µM) in assay [3] (read-out: MIC); 0.39 µg/mL (≈ 0.623 µM) in assay [4] (setting [8]); 0.78 µg/mL (≈ 1.25 µM) in assay [5] (setting [9]); 6.25 µg/mL (≈ 9.99 µM) in assay [6] (read-out: MIC).

The MIC is the lowest concentration that inhibits growth of the organism.
